Activity calls are given as the source filed them. The rule behind the calls is not given here. A value given as a limit tells only on which side of the number the result lay.

The subject of the assay is M. tuberculosis H37Rv growth inhibition with meropenem. Nature of the assay: dose response, H37Rv, with and without meropenem (AID 434987).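 Note: growth over 7 days at 37 °C before Alamar Blue read on day 9.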
[1] abbreviates: M. tuberculosis H37Rv growth inhibition, measured here: IC50 without meropenem.
[2] abbreviates: M. tuberculosis H37Rv growth inhibition, measured here: IC90 without meropenem.
The mark [3] stands for this setting: measured here: IC90 with meropenem.

As usually defined, the IC50 is the concentration at which inhibition is half-maximal. For orientation: IC90 means the concentration needed for an effect of 90%. A higher IC90 goes with weaker potency. With `NC(N)=NS(=O)(=O)c1ccc(N)cc1`, the IC50 was > 100 µM (inactive). In addition, the IC50 under setting [1] was greater than 100 µM. The concentration for an effect of 90% (IC90) under setting [2] was greater than 100 µM. The molecule also gave a concentration for an effect of 90% (IC90) under setting [3] greater than 100 µM.

For the molecule `C=CCSc1nccc(-c2nn(-c3ccc(C)cc3)ccc2=O)n1`, the IC50 was 94.1 µM (inactive). The concentration for half-maximal inhibition (IC50) under setting [1] was greater than 100 µM. The 90% effect concentration (IC90) under setting [2] was greater than 100 µM. The molecule further showed a 90% effect concentration (IC90) under setting [3] greater than 100 µM.

With `CCOC(=O)c1c(NC(=O)C(=O)N/N=C/c2ccccc2OC)sc2c1CCCCC2`, the IC50 was > 100 µM (inactive). Moreover, the half-maximal inhibitory concentration (IC50) under setting [1] is greater than 100 µM. The same molecule returned an IC90 under setting [2] greater than 100 µM. Under setting [3], this molecule registered a concentration for an effect of 90% (IC90) greater than 100 µM.

Regarding `O=C(CC12CC3CC(CC(C3)C1)C2)NCc1ccc(F)cc1`, the half-maximal inhibitory concentration (IC50) was 7.43 µM. Under setting [1], this molecule gave an IC50 greater than 100 µM. The same molecule came in with a concentration for an effect of 90% (IC90) under setting [2] greater than 100 µM. In addition, the 90% effect concentration (IC90) under setting [3] worked out at 10.4 µM.

Consider `Clc1ccc(-c2csc3ncnc(N4CCc5ccccc5C4)c23)cc1`, for which the IC50 was 95.4 µM (inactive). Moreover, under setting [1], the IC50 was greater than 100 µM. In addition, the concentration for an effect of 90% (IC90) under setting [2] was greater than 100 µM. Also, the 90% effect concentration (IC90) under setting [3] is greater than 100 µM.

For `O=C(CCN1C(=O)c2ccccc2S1(=O)=O)Nc1ccc(Cl)cc1`, the IC50 is > 100 µM (inactive). In addition, the concentration for half-maximal inhibition (IC50) under setting [1] is greater than 100 µM. This molecule also gave an IC90 under setting [2] greater than 100 µM. Also, the IC90 under setting [3] is greater than 100 µM.

On to `C=CCC(Nc1ccccc1)C12C=CC(O1)C(C(=O)OC)=C2C(=O)OC` (configuration not stated), for which the IC50 was > 100 µM (inactive). The molecule further returned an IC50 under setting [1] greater than 100 µM. Also, the IC90 under setting [2] was greater than 100 µM. This molecule also gave a concentration for an effect of 90% (IC90) under setting [3] greater than 100 µM.

On to `C/C(=N\NC(=S)Nc1ccccc1C)c1ccc(O)cc1`, for which the IC50 is 0.552 µM. The molecule also gave an IC50 under setting [1] of 21.6 µM. In addition, the concentration for an effect of 90% (IC90) under setting [2] was found to be 24.7 µM. In addition, under setting [3], the 90% effect concentration (IC90) worked out at 7.97 µM.

Regarding `O=C(Nc1ccccc1)c1c2c(nc3ccccc13)CCCC2`, the half-inhibitory concentration (IC50) was 17.1 µM. For the same molecule, under setting [1], the 50% inhibitory concentration (IC50) is greater than 100 µM. The IC90 under setting [2] is greater than 100 µM. Further, under setting [3], the IC90 was greater than 25 µM.

Turning to `CCOc1ccc(-c2nnc(SCC(=O)N3CCOCC3)o2)cc1`, the IC50 was > 100 µM (inactive). In addition, the IC50 under setting [1] was greater than 100 µM. Moreover, the 90% effect concentration (IC90) under setting [2] is greater than 100 µM. Under setting [3], this molecule came in with a concentration for an effect of 90% (IC90) greater than 100 µM.

`Cc1ccc(Cn2c(NC(=O)c3ccco3)nc3ccccc32)cc1`: the 50% inhibitory concentration (IC50) is 2.62 µM. Further, the IC50 under setting [1] is greater than 100 µM. The same molecule had an IC90 under setting [2] greater than 100 µM. Also, the 90% effect concentration (IC90) under setting [3] is greater than 100 µM.

`O=c1oc(-c2ccccc2F)nc2scc(-c3ccccc3)c12`: the 50% inhibitory concentration (IC50) is 2.19 µM. This molecule gave a half-inhibitory concentration (IC50) under setting [1] greater than 100 µM. The same molecule displayed a 90% effect concentration (IC90) under setting [2] greater than 100 µM. Under setting [3], this molecule returned a concentration for an effect of 90% (IC90) of 3.05 µM.

Turning to `Cn1c(=S)[nH]c2sc3c(c2c1=O)CCC(C(C)(C)C)C3` (configuration not stated), the IC50 was 38 µM (inactive). The molecule also registered a half-inhibitory concentration (IC50) under setting [1] of 79 µM. Also, the concentration for an effect of 90% (IC90) under setting [2] is greater than 100 µM. The concentration for an effect of 90% (IC90) under setting [3] is greater than 100 µM.

As to `CN(c1ccc(OCC(=O)Nc2ccc3[nH]c(=O)[nH]c3c2)cc1)S(=O)(=O)c1ccc(Cl)cc1`, the IC50 was > 100 µM (inactive). For the same molecule, under setting [1], the IC50 was greater than 100 µM. In addition, the IC90 under setting [2] was greater than 100 µM. The molecule further displayed a concentration for an effect of 90% (IC90) under setting [3] greater than 100 µM.

Take `Cc1ccc(S(=O)(=O)N[C@H](C(=O)OCn2nnc3ccccc3c2=O)C(C)C)cc1`: the IC50 was > 100 µM (inactive). Also, the IC50 under setting [1] is greater than 100 µM. Moreover, the IC90 under setting [2] was greater than 100 µM. Further, the IC90 under setting [3] is greater than 100 µM.

Regarding `CCOC(=O)c1c(C)[nH]c(C)c1C(=O)COC(=O)c1ccc(S(=O)(=O)N(CC)CC)cc1`, the IC50 was 92.6 µM (inactive). Further, under setting [1], the IC50 was greater than 100 µM. The molecule further displayed an IC90 under setting [2] greater than 100 µM. Under setting [3], this molecule came in with a 90% effect concentration (IC90) greater than 100 µM.

For `COc1cc(/C=C/c2ccc3cccc([N+](=O)[O-])c3n2)ccc1OCC(=O)O`, the concentration for half-maximal inhibition (IC50) was 6.21 µM. Also, under setting [1], the IC50 turned out to be 24.9 µM. Under setting [2], this molecule returned an IC90 of 62.5 µM. Moreover, the IC90 under setting [3] was 12 µM.

As to `O=C(Nc1ccccc1-c1ccccc1)C12CC3CC(CC(C3)C1)C2`, the IC50 is > 100 µM (inactive). This molecule also registered a concentration for half-maximal inhibition (IC50) under setting [1] greater than 100 µM. The concentration for an effect of 90% (IC90) under setting [2] is greater than 100 µM. In addition, the concentration for an effect of 90% (IC90) under setting [3] was greater than 100 µM.

With `O=C(Nc1nnc(-c2ccc3c(c2)OCCO3)o1)C1CCCCC1`, the IC50 was 16.3 µM. Also, the half-inhibitory concentration (IC50) under setting [1] worked out at 55 µM. Further, the IC90 under setting [2] is greater than 100 µM. The molecule further yielded an IC90 under setting [3] greater than 100 µM.

`CNc1ccccc1NC(=O)C1CCCN1C(=O)OCc1ccccc1` (configuration not stated): the IC50 was > 100 µM (inactive). The same molecule registered an IC50 under setting [1] greater than 100 µM. Further, the IC90 under setting [2] is greater than 100 µM. For the same molecule, the concentration for an effect of 90% (IC90) under setting [3] was greater than 100 µM.

Turning to `Cc1cc(C)cc(SCc2noc(C(=O)NC(C)C)c2C(=O)O)c1`, the IC50 was 25.1 µM (inactive). Under setting [1], the IC50 amounted to 45.2 µM. Moreover, the concentration for an effect of 90% (IC90) under setting [2] is 50.7 µM. Under setting [3], the 90% effect concentration (IC90) is 27.3 µM.

Take `N#C/C(C(=O)NCc1ccco1)=C1/SC=C(c2ccccc2)N1c1ccccc1`: the IC50 was > 100 µM (inactive). The half-inhibitory concentration (IC50) under setting [1] is greater than 100 µM. Under setting [2], this molecule registered a 90% effect concentration (IC90) greater than 100 µM. Besides, the IC90 under setting [3] is greater than 100 µM.

For the molecule `COc1ccc(-c2nc(-c3cccc(C)c3)no2)cc1OC`, the IC50 is > 100 µM (inactive). Also, the 50% inhibitory concentration (IC50) under setting [1] is greater than 100 µM. Further, under setting [2], the IC90 was greater than 100 µM. The molecule also showed an IC90 under setting [3] greater than 100 µM.

The values are drawn from PubChem BioAssay AID434987 (Southern Research Specialized Biocontainment Screening …, 2010).
